This passage reports EC50 and Emax results from US12398119B2, “Piperazine azaspiro derivatives” (PFIZER INC., priority 2018, dated 2025).

Read-outs that look alike come from different tables or passages of the source.

The target of the test is T1, Human M4 mAChR (Homo sapiens, UniProt P08173).
T1 construct: host or cells: HEK293 (Sor-L9 HEK293 human/M4/GloSensor Cell Clone Number 40)
T1 sequence (P08173 1-479): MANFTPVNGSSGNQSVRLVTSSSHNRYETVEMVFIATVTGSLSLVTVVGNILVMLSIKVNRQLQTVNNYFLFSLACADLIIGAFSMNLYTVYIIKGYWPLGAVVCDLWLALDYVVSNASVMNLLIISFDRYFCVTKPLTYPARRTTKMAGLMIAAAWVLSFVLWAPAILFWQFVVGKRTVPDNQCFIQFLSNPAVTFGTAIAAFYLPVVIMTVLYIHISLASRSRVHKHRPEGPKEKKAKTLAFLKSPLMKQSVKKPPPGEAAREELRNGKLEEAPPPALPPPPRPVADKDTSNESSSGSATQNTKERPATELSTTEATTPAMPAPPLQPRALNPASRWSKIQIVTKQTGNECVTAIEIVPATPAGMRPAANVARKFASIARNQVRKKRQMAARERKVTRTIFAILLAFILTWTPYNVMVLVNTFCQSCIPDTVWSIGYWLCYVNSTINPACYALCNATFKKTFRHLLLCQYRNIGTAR
The experiment in a line: Muscarinic hM4 Agonist GloSensor cAMP Assay. In kind it is cell-based. As for the experimental part:
Muscarinic hM4 Agonist GloSensor cAMP Assay Methods
Compounds were prepared in advance of the assay. Test compounds were solubilized in 100% dimethyl sulfoxide (DMSO, Sigma D8418) to a concentration of 30 mM. A 10-point intermediate dilution series using half log dilutions was created in 100% DMSO with a top concentration of 4 mM. The serially diluted compounds were spotted as 200 nL/well in a 384-well plate (Matrix Catalog Number 4325). The final compound concentration range in the assay was […] to 0.3 nM with a final DMSO concentration of 0.25%.
Human M4 mAChR expressing stable cell lines were generated using a parental HEK cell expressing the GloSensor construct (Promega Sor-L9 HEK293 human/M4/GloSensor Cell Clone Number 40). The cells were grown in 90% Dulbecco's Modified Eagle Medium (DMEM, Gibco 11960), 10% fetal bovine serum (FBS, Hyclone CH.30160-03), 1% Penicillin/Streptomycin (Gibco 15070-063), 500 µg/mL Geneticin (Gibco 10131-027), 200 µg/mL Hygromycin B (Invitrogen 10687-010) and 1% Glutamax (Thermo Fisher 35050061).
One day prior to assay, the cells were lifted using dissociation buffer (Gibco 13151-014) and spun in a centrifuge at 250 times gravity for 5 minutes at room temperature. Supernatant was removed and the cell pellet was resuspended in growth media to a concentration of […]. Cells were then added to white poly-d-lysine coated plates (Becton Dickinson 356661) as 40 μL per well (25,000 cells) and incubated overnight (20-24 hours) in a 37° C. humidified incubator with 5% carbon dioxide (C02).
The following day, culture media was removed from the cell plates and replaced with […] equilibration medium containing 88% CO2-independent medium (Invitrogen 18045088), 10% FBS and 2% GloSensor cAMP reagent (Promega E1291) that had been warmed to 37° C. Plates were then covered and incubated for 2 hours at room temperature while protected from light.
To the previously prepared serially diluted compound plates, 200 nL of 4 mM ACh (Sigma A2661, 10 μM final) or 200 nL of 100% DMSO (0.25% final) was added to the positive and negative control wells, respectively. Compound plates were then diluted by adding 16 μL of C02-independent media containing 10% FBS and an EC80 concentration of isoproterenol (Sigma 16504). Prior to compound testing, concentration response curves were run for isoproterenol to determine the EC80 concentration. At the end of the 2 hour equilibration, 10 µL was transferred from the compound plates to the cell plates. The cell plates were incubated an additional 7 minutes at room temperature and then read using a Multi-label EnVision plate reader (Perkin Elmer) for luminescence.
The raw data, expressed as relative light units, was analyzed using Activity Base (IDBS). The percent effect at each compound concentration was calculated based on and relative to the amount of cAMP produced by the positive and negative control wells contained on each assay plate. The positive control wells contained an EC100 concentration of ACh and the negative control wells contained only DMSO. The concentration and % effect values were fit using a four-parameter logistic dose response equation, and the concentration required for 50% effect (EC50) was determined as well as the maximum asymptote of the concentration response curve to define the efficacy.

[1] abbreviates: enantiomers reported in footnotes to Table 1, number of determinations in parentheses, read-out: M4 EC50.
Where [2] appears, read: enantiomers reported in footnotes to Table 1, number of determinations in parentheses, read-out: M4 Emax.
Where [3] appears, read: Emax: maximum asymptote of concentration response curve, relative to ACh positive control (EC100) and DMSO, geometric mean, read-out: % maximum effect.
[4] abbreviates: HEK293 human/M4/GloSensor cells, EC80 isoproterenol, geometric mean, number of determinations in parentheses, read-out: EC50.

Consider `CCOC(=O)N1CC2(CCC(N3CCN(c4ncccc4C)CC3)C2)C1` (single isomer, unassigned) [enantiomer of Example 21, ethyl 6-[4-(3-methylpyridin-2-yl)piperazin-1-yl]-2-azaspiro[3.4]octane-2-carboxylate], for which, under setting [1], the EC50 is above 241 nM. The Emax under setting [2] is 76.2%.

For `CCOC(=O)N1CC2(CCC(N3CCN(c4cccnc4OCC(F)(F)F)CC3)C2)C1` (stereo not shown) [Example 10, ethyl 6-{4-[2-(2,2,2-trifluoroethoxy)pyridin-3-yl]piperazin-1-yl}-2-azaspiro[3.4]octane-2-carboxylate], under setting [3], the Emax worked out at 91.5%. The EC50 under setting [4] was found to be 5.13 nM.

As for `CCOC(=O)N1CC2(CCC(N3CCN(c4ncccc4-c4cncc(OC(F)F)c4)CC3)C2)C1` (stereo not shown) [Example 37, ethyl 6-{4-[5′-(difluoromethoxy)-3,3′-bipyridin-2-yl]piperazin-1-yl}-2-azaspiro[3.4]octane-2-carboxylate], the Emax under setting [3] came out at 24.7%. Also, the concentration for a half-maximal effect (EC50) under setting [4] stood at 6.1 nM.

For `CCOC(=O)N1CC2(CCC(N3CCN(c4ncccc4-c4cnc(OC)cn4)CC3)C2)C1` (single isomer, unassigned) [Example 3, ethyl 6-{4-[3-(5-methoxypyrazin-2-yl)pyridin-2-yl]piperazin-1-yl}-2-azaspiro[3.4]octane-2-carboxylate], under setting [3], the Emax came out at 83.7%. In addition, the concentration for a half-maximal effect (EC50) under setting [4] came out at 3.87 nM.

For the compound `CCOC(=O)N1CC2(CC[C@@H](N3CCN(c4ncccc4-n4cc(C)cn4)CC3)C2)C1` [Example 9, ethyl (6R)-6-{4-[3-(4-methyl-1H-pyrazol-1-yl)pyridin-2-yl]piperazin-1-yl}-2-azaspiro[3.4]octane-2-carboxylate], the Emax under setting [3] is 68.2%. The 50% effective concentration (EC50) under setting [4] is 14.8 nM.

As for `CCOC(=O)N1CC2(CC[C@@H](N3CCN(c4ncccc4N4CC5(COC5)C4)CC3)C2)C1` [Example 44, ethyl (6R)-6-{4-[3-(2-oxa-6-azaspiro[3.3]hept-6-yl)pyridin-2-yl]piperazin-1-yl}-2-azaspiro[3.4]octane-2-carboxylate], under setting [3], the Emax was 92.5%. Also, under setting [4], the concentration for a half-maximal effect (EC50) stood at 1 nM.

As for `CCOCCn1cc(-c2cccnc2N2CCN([C@@H]3CCC4(C3)CN(C(=O)OCC)C4)CC2)cn1` [Example 50, ethyl (6R)-6-(4-{3-[1-(2-ethoxyethyl)-1H-pyrazol-4-yl]pyridin-2-yl}piperazin-1-yl)-2-azaspiro[3.4]octane-2-carboxylate], the Emax under setting [3] was 89.4%. Also, the EC50 under setting [4] was below 0.389 nM.

With `CCOC(=O)N1CC2(CC(N3CCN(c4ncccc4-c4ccc(C#N)cn4)CC3)C2)C1` [Example 24, ethyl 6-[4-(5-cyano-2,3′-bipyridin-2′-yl)piperazin-1-yl]-2-azaspiro[3.3]heptane-2-carboxylate], the Emax under setting [3] was 70.6%. Also, the EC50 under setting [4] came out at 53.8 nM.

On to `CCOC(=O)N1CC2(CCC(N3CCN(c4ncccc4C4CC4)CC3)C2)C1` (single isomer, unassigned) [enantiomer of Example 22, ethyl 6-[4-(3-cyclopropylpyridin-2-yl)piperazin-1-yl]-2-azaspiro[3.4]octane-2-carboxylate], for which the 50% effective concentration (EC50) under setting [1] is 11.6 nM. Further, under setting [2], the Emax turned out to be 103%.

As to `CCOC(=O)N1CC2(CCC(N3CCN(c4ncccc4N4CCC(F)(F)C4)CC3)C2)C1` (stereo not shown) [Example 29, ethyl 6-{4-[3-(3,3-difluoropyrrolidin-1-yl)pyridin-2-yl]piperazin-1-yl}-2-azaspiro[3.4]octane-2-carboxylate], under setting [3], the Emax amounted to 84%. The EC50 under setting [4] came out at 4.45 nM.

As to `CCOC(=O)N1CC2(CC[C@@H](N3CCN(c4ncccc4-c4cscn4)CC3)C2)C1` [Example 4, ethyl (6R)-6-{4-[3-(1,3-thiazol-4-yl)pyridin-2-yl]piperazin-1-yl}-2-azaspiro[3.4]octane-2-carboxylate], under setting [3], the Emax was 87.2%. The concentration for a half-maximal effect (EC50) under setting [4] was 2.17 nM.

One may read the EC50 as the concentration that produces a half-maximal response.
